Data taken from US5382584A, “Adenosine re-uptake inhibiting derivatives of diphenyl oxazoles, thiazoles and imidazoles” (Bristol-Myers Squibb Company, priority 1994, dated 1995).
Counter-ions that a name gives are not always drawn.

Experiment: neuroprotective activity of single enantiomers (test not specified)
Text: A chiral synthetic procedure was also developed to provide single enantiomers of certain stereoisomeric compounds of Formula I. The procedure is illustrated in Scheme III. This synthesis results in a Formula I compound with a chiral center in the piperazine ring. […] While both enantiomers were neuroprotective, the S-(-)-enantiomer had about 30 times the activity of the R-(+)-enantiomer. [drawing 11]

## Cl.Cl.Cl.NC(=O)[C@H]1CN(Cc2nc(-c3ccccc3)c(-c3ccccc3)o2)CCN1CC(=O)Nc1c(Cl)cc(N)cc1Cl.O [R-(+)-enantiomer, R-(+)-2-(aminocarbonyl)-N-(4-amino-2,6-dichlorophenyl)-4-[(4,5-diphenyl-2-oxazolyl)methyl]-1-piperazineacetamide trihydrochloride monohydrate]
  neuroprotection: neuroprotective

## NC(=O)[C@@H]1CN(Cc2nc(-c3ccccc3)c(-c3ccccc3)o2)CCN1CC(=O)Nc1c(Cl)cc(N)cc1Cl [S-(-)-enantiomer, S-(-)-2-(aminocarbonyl)-N-(4-amino-2,6-dichlorophenyl)-4-[(4,5-diphenyl-2-oxazolyl)methyl]-1-piperazineacetamide Trihydrochloride]
  neuroprotection: neuroprotective
Neuroprotective activity
  activity relative to the R-(+)-enantiomer: about 30 times
